The test system of assay [1] is normal human epidermal keratinocytes. Nature of the assay: differentiation assay (K1/K10) on normal human epidermal keratinocytes. The following applies: for differentiation: Carbenoxolone 6 μM, Disulfiram 15 μM or Citral 10 μM, 1.2 mM calcium, FIG. 11. The class given is cell-based. On the procedure:
(§1) Primary cultures were seeded at 3500 cells/cm^2 in K-SFM 25 cm^2 tissue culture flasks. The medium was changed (5 ml per flask) the day after seeding and every other day thereafter. At 70-80% confluence the cells were subcultured by seeding 3500 cells/cm^2 in new 25 cm^2 flasks. On the day that the subcultures reached confluence the medium was switched to medium containing the experimental treatments.
(§2) The cells were cultured for 4 days, replacing the experimental medium every other day, before harvesting the cells.
RNA extraction is carried out according to the manufacturers instructions using the RNeasy kit (QIAGEN). 20 μg of RNA for each treatment was separated on a 1.2% agarose (1.8% formaldehyde) gel and transferred onto a nylon membrane (Zeta probe GT membranes, BioRad) by capillary transfer. The RNA is fixed to the membrane by UV crosslinking. DNA probes for the differentiation markers K1 and K10(50 ng) are labelled with [α-^32P] dCTP using the Prime-It RmT Primer labeling kit (Stratagene) following the manufacturer's instructions. Unincorporated nucleotides are removed by elution through a Microspin G25 column (Pharmacia Biotech). The blots are wetted in 0.25M sodium phosphate (pH 7.2)/7% SDS for 30 minutes at 65° C. Fresh hybridisation solution is added along with the radiolabelled probe and the blot is hybridised overnight at 65° C.
The blot is washed for 2×5 minutes in 0.25M sodium phosphate (pH 7.2), 7% SDS and then for 2×5 minutes in 20 mM sodium phosphate (pH 7.2), 5% SDS at 65° C. The wash steps are repeated until a clear distinction can be made between the signal and non-specific background. The blot is exposed to x-ray film for 24 hours before developing.
Synthesis of mRNA for the K1 and K10 keratin (markers for commitment to terminal differentiation) is examined by quantitative reverse transcription PCR (RT-PCR). Synthesis of mRNA for Cyclin D (a marker for cell proliferation) is also assayed by RT-PCR. […] The RNA is blotted onto a nylon membrane by capillary transfer and expression of K1 mRNA is determined by Northern hybridisation with a radiolabelled DNA probe. […]

Assay [2] shares this test system. The assay can be described thus: proliferation assay on normal human epidermal keratinocytes. The class given is cell-based. On the procedure: Pieces of skin are washed thoroughly for 30 minutes in Betadine solution (10% iodine) followed by 2×10 minute washes in PBS. After removal of the subcutaneous tissue and dermis with a scalpel the skin is dissected into 5×10 mm pieces. The skin pieces are rinsed 5× in PBS followed by incubating in Dispase (grade 11, 2.4 U/ml, Boehringer Mannheim) for 18 hours at4° C.
The skin pieces are then placed dermis side down in 100 mm Petri dishes and are irrigated with 5 ml KSFM. The epidermis is peeled off with forceps and incubated in 10 ml 1× Trypsin/EDTA solution for 10 minutes at 37° C. followed by addition of 10 ml KSFM. The sample is mechanically agitated by aspiration and ejection from a transfer pipette. The resulting cell suspension is sieved using a cell strainer (Becton Dickinson) rinsing through with KSFM. The isolated epidermal cells are then washed twice in KSFM by centrifugation at 100 g for 10 min. Cells are seeded as below.
as §1, §2
Cell Seeding and Analysis: Purchased secondary cultures or primary cultures (from donor skin) are seeded at 3500 cells/cm^2 in K-SFM 25 cm^2 tissue culture flasks. The medium is changed (5 ml per flask) the day after seeding and every other day thereafter. […]
The medium is replaced every other day. […] The cell suspension is added to 20 ml Isoton solution in a Coulter counter “Accuvette” and the cells are counted. On each harvest, 3 wells of cells are counted for each treatment and 3 counts were made for each well.
Cell number is calculated as follows: Coulter Counter removes 500 μl of 20 ml sample ( 1/40). […]

The mark [3] stands for this setting: Carbenoxolone 6 μM, Disulfiram 15 μM or Citral 10 μM.

Where no end group is shown, it is not given here.

`CC1(C)[C@@H](OC(=O)CCC(=O)O)CC[C@]2(C)[C@H]3C(=O)C=C4[C@@H]5C[C@@](C)(C(=O)O)CC[C@]5(C)CC[C@@]4(C)[C@]3(C)CC[C@@H]12` [Carbenoxolone]: the differentiation result in assay [1] is listed as “increase differentiation”. In assay [2] (setting [3]), the proliferation result is given as “inhibit proliferation”.

As for `CC(C)=CCCC(C)=CC=O` [Citral, 3,7-dimethyl-2,6-octadienal], the differentiation result in assay [1] is reported as “increase differentiation”. Also, in assay [2] (setting [3]), the proliferation entry is recorded as “inhibit proliferation”.

As for GRVRLLNNWDVCA, the “differentiation (expression of K1 and K10 markers)” value in assay [1] (peptide 6 μM, RBP 0.6 μM, Ca 1.2 mM, FIG. 6) was “enhances the expression of K1 and K10 markers”. Also, in assay [2] (peptide 6 μM, RBP 0.6 μM, Ca 1.2 mM), the proliferation result is “reduces proliferation”.

The values above are taken from patent publication US8048918B2, “Treatment of hyperproliferative diseases” (Vampex Limited, priority 2000, dated 2011).
